Reference: PMC9369311, “Examination of Intracellular GPCR-Mediated Signaling with High Temporal Resolution” (International Journal of Molecular Sciences, 2022)
“And” between values parts separate entries of the source, which are not always exact repeats. Identical values can stand only once. “Also recorded” adds a separate entry of the source.

Assays:
[1] = target: T1, CNGA2 channel (Bos taurus, UniProt Q03041, T537M); experiment: Stopped-flow flash photolysis of caged cAMP in Fluo-4-loaded flpTM-DmOctβ1 cells; assay type: cell-based, bovine; conditions: for cAMP released by photolysis: based on quantum yield
T1 construct: host or cells: HEK293 flpIn cells (Invitrogen #750-07)
T1 sequence (Q03041 1-663 T537M): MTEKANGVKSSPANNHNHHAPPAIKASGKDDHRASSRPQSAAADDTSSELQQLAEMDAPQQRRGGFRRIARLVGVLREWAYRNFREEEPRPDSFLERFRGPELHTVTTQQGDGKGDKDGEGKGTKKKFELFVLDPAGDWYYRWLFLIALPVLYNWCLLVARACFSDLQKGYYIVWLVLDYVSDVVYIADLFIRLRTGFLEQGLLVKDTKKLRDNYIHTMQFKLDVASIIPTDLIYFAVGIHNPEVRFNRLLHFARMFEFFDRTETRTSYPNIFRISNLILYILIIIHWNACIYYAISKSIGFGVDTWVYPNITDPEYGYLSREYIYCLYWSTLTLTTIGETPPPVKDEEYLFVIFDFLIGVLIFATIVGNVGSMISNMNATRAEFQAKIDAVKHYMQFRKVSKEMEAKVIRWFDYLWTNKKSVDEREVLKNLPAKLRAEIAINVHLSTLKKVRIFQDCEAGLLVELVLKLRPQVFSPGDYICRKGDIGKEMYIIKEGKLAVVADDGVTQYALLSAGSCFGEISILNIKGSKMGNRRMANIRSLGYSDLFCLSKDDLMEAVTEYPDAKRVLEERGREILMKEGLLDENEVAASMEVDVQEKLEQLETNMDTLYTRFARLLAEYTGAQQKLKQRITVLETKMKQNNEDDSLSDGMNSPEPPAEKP
Excerpt: Neutral density filters that regulate the transmission of light (5%, 25%, 50%, 80%, 100%) were installed, allowing application of different light intensities.
As an integral component of the flpTM-DmOctβ1 cell line, the cAMP-sensitive CNG channel (flpTM; see [32]) enables the detection of cellular cAMP dynamics via mediating cAMP-dependent opening of the channel pore and resulting in Ca^2+ influx. […] A (7-diethylaminocoumarin-4-yl)methyl (DEACM)-modified cAMP was used. The FlpTM-DmOctβ1 cells were loaded with Fluo-4 and DEACM-cAMP. For the stopped-flow measurements, the cells were mixed with ES in the cuvette and after 2 s, a UV-flash was triggered for 10 ms to release cAMP. The fluorescence signals were monitored for 12 s. The time point when triggering the light flash was defined as t = 0. Different concentrations of DEACM-cAMP were used (10 µM, 30 µM, 50 µM, and 100 µM) for loading cells. […] In successive experiments, different light intensities were applied (5%, 25%, 50%, 80%, 100%). The experiments were performed in the presence of 100 µM IBMX to avoid fluctuations in cAMP due to cell-endogenous phosphodiesterases.
For the photolysis of the caged compounds with ultraviolet (UV)-light, a Xe-flash lamp (JML-C2; Rapp Opto Electronics, Wedel, Germany) was coupled to the cuvette via an UV-light permeable light guide (Schott). A UV-2 interference filter was placed between the Xe-flash lamp and light guide to select for the UV-light needed for the photolysis of the caged compounds. Additionally, it prevents the photomultiplier from being hit by light that is able to pass the emission filter. The maximal energy of one light flash at the surface of the cuvette was 107 mJ·cm^−2 (set to C2 and 200 V). Neutral density (ND) filters (AHF Analysentechnik, Tübingen, Germany) could be installed between the interference filter and the Xe-flash lamp to regulate the intensity of the UV-light applied to the cuvette. To maximize the detection of the emission light, a test solution containing 50 nM of fluorescein in ES was added to the cuvette and the light guide was fixed to the Xe/Hg-lamp at a position where the photomultiplier detected maximal intensity.

[2] = test system: cell endogenous adenylyl cyclases; experiment: Ca2+ fluorimetry in plate reader (96 MWP), flpTM-DmOctβ1 cells stimulated with NKH477; assay type: cell-based, human; conditions: for logEC50 ± SD: given as logEC50 (negative)
Experimental: In another series of experiments, DmOctβ1 receptor-expressing cell lines were incubated with NKH477, a water soluble agonist of membrane bound adenylyl cyclases, the downstream effectors in DmOctβ1 signaling. Before stimulating the adenylyl cyclase activity, NKH477 has to cross the cell membrane and then binds to the catalytic domain of the enzyme. As before, the flpTM-DmOctβ1 cells were seeded in 96 MWPs and loaded with Fluo-4. In parallel, cells stably co-transfected with GCaMP3.0 were examined (flpTM-DmOctβ1-GCaMP3.0). All of the measurements were performed in the presence of 100 µM IBMX. […] In comparison to the octopamine-evoked responses, the EC50 values for NKH477 differed strongly, with values in the nanomolar range for octopamine and in the micromolar range for NKH477, but confirming the previous data on the octopamine receptors and adenylyl cyclases, respectively. […] Whether this effect was due to differences in the cytosolic distribution of both Ca^2+ detectors and/or the spatial presence of adenylyl cyclase isoforms in membrane domains has not been experimentally addressed.
In this study, we made use of previously established stably transfected cell lines. Briefly, human embryonic kidney cells (HEK293; #85120602, ECACC, Porton Down, Salisbury, UK) were transfected with 10 µg of DmOctα1B receptor-encoding construct by a modified calcium phosphate method. The cell line constitutively expressing the DmOctα1B receptors was propagated in MEM+Glutamax medium containing 10% (v/v) fetal calf serum, 1% (v/v) non-essential amino acids, 1% (v/v) antibiotics/antimycotics, and […] Geneticin (all obtained from ThermoFisher Scientific/Gibco; Dreieich, Germany). A related human embryonic kidney 293-based cell line (HEK293; flpIn cells; Invitrogen/ThermoFisher Scientific; #750-07) that was transfected with a gene encoding a variant of the A2-subunit of the olfactory cyclic nucleotide-gated ion channel (CNG; [31]; flpTM cells, provided by Sibion Biosciences, Jülich, Germany) was transfected with 10 µg of DmOctβ1 receptor-encoding construct. The cell line constitutively expressing the CNG channels and DmOctβ1 receptors was named flpTM-DmOctβ1 and propagated in DMEM+Glutamax medium containing 10% (v/v) fetal calf serum, 1% (v/v) penicillin/streptomycin, and 100 µg/mL Hygromycin, as well as […] Geneticin (all obtained from ThermoFisher Scientific/Gibco). […]
To monitor the intracellular changes of Ca^2+, the cells stably transfected with the genetically encoded calcium indicator GCaMP3.0 (Tian et al., 2009) or loaded with the calcium-sensitive fluorescent dye Fluo-4-AM (Life Technologies/Thermo Fisher Scientific) were analyzed in the plate reader FLUOstar Omega (BMG Labtech, Ortenberg, Germany). […]

[3] = test system: adenylyl cyclases; experiment: Stopped-flow Ca2+ fluorescence measurements, flpTM-DmOctβ1 cells, NKH477; assay type: cell-based, human
Experimental: In successive stopped-flow measurements, the flpTM-DmOctβ1 cells loaded with Fluo-4 were stimulated with increasing octopamine (1 nM–3 µM) and NKH477 (100 nM–300 µM) concentrations. The fluorescence intensities were monitored over 80 s and 100 s, respectively (Figure 4A1,B1). The fluorescence intensities increased and finally reached a plateau with increasing concentrations of both of the ligands. However, the saturating ligand concentrations differed strongly between octopamine (≥300 nM) and NKH477 (≥100 µM). By plotting the maximal changes in fluorescence (ΔF/F0) against ligand concentrations, concentration–response curves were generated and EC50 values were calculated (Figure 4C). […] As observed for the DmOctα1B cell lines (see Figure 3D), the signal response times of flpTM-DmOctβ1 cells were faster at higher ligand concentrations (Figure 4A2,B2). In Figure 4D, the time until the signals were detected (for details, see Materials and Methods, Section 4.4) are plotted for the ligand concentrations covering the calculated EC50 value (dynamic range) and for saturating concentrations (saturating range). The signal response times of the flpTM-DmOctβ1 cells for octopamine were in the range of 30 s (dynamic range) and 6 s (saturating range), whereas the signal detection upon NKH477 application was observed after 50 s (dynamic range) and 16 s (saturating range). The signal response times were about three- to five-fold faster at the saturating concentrations in comparison to the octopamine and NKH477 concentrations in the dynamic range.
As described for the Fluo-4-loaded flpTM-DmOctβ1 cells, similar experiments were performed with the flpTM-DmOctβ1-GCaMP3.0 cells (Figure 5). The cells were successively mixed with increasing concentrations of octopamine (30 pM–100 nM) or NKH477 (30 nM–100 µM) and the fluorescence intensities were recorded over 100 s. For both of the ligands, increasing ligand concentrations led to an increase in the fluorescence emission finally reaching a plateau (Figure 5A1,B1).
For the stopped-flow measurements, the SFM-400 system (BioLogic, Münster, Germany) was used. The main component of the stopped-flow setup is the SFM-400 module with four 10 mL syringes, which can be filled by external valves. The syringes are driven by step motors. The reactants can be mixed in three individual mixing chambers (M1–M3). The volume between M1 and M2 is 21 µL, and 31 µL between M2 and M3. The observation chamber is a quartz cuvette (FC-15) with a reaction volume of 31 µL, installed behind M3. To avoid fluctuations of the reaction mixture in the cuvette, which might lead to noisy and inconsistent signals, a hard stop valve located behind the cuvette can be closed after injection of the reactants. The stopped-flow module is controlled via a MPS-60 control unit (BioLogic). Data acquisition and operation of the system were performed with the Bio-Kine 32 v4.74 software (BioLogic).
The reactions in the cuvette were analyzed via the changes in the fluorescence. A 150 W Xe/Hg-lamp (ALX-220; BioLogic) was used as a light source for the excitation. The excitation light was guided via a light guide towards the cuvette. To determine the wavelength of the excitation light, a 482 nm bandpass filter (482/35 nm BrightLine® single-band bandpass filter; Semrock, Rochester, NY, USA) was used. A heat protection filter (3 mm; KG1, Schott; Mainz, Germany) was placed between the Xe/Hg-lamp and the excitation filter. The fluorescence was detected with a photomultiplier (PMS 200, BioLogic) installed rectangularly to the light path of the excitation light. Between the cuvette and the photomultiplier tube a 535 nm bandpass emission filter (XF3007 535AF35; Horiba, Oberursel, Germany) was placed to select for the emission light being detected by the photomultiplier. A voltage of 600 V was applied to the photomultiplier.
The fluorescence measurements were performed either directly with the cells expressing GCaMP3.0 or after loading the cells with Fluo-4-AM. […]

[4] = flpTM-DmOctβ1-GCaMP3.0 cells, 100 µM IBMX
[5] = flpTM-DmOctβ1 cells loaded with Fluo-4, 100 µM IBMX

SMILES	time from light flash to rise in fluorescence (Ca2+ signal) ([1]; cells loaded with 10 µM DEACM-cAMP, light intensities of 80% and 100%, 10 ms flash, 100 µM IBMX)	onset of Ca2+ signals after light flash ([1]; cells loaded with 30 µM DEACM-cAMP, 10 ms flash, 100 µM IBMX)	cAMP released by photolysis ([1]; from 10 µM DEACM-cAMP)	cAMP released by photolysis ([1]; from 30 µM DEACM-cAMP) [µM]	EC50 [2, 4] [µM]	logEC50 ± SD [2, 4]	EC50 [2, 5] [µM]	logEC50 ± SD [2, 5]	Signal Response Time ([3]; dynamic range (concentrations around EC50), flpTM-DmOctβ1-GCaMP3.0 cells) [s]	Signal Response Time ([3]; dynamic range (concentrations around EC50), flpTM-DmOctβ1 cells loaded with Fluo-4) [s]	Signal Response Time ([3]; saturating concentration, flpTM-DmOctβ1-GCaMP3.0 cells, mean ± SEM)	Signal Response Time ([3]; saturating concentration, flpTM-DmOctβ1 cells loaded with Fluo-4, mean ± SEM) [s]	Signal Response Time ([3]; saturating ligand concentration, flpTM-DmOctβ1 cell lines, Fluo-4 and GCaMP3.0) [s]	EC50 ([3]; stopped-flow, flpTM-DmOctβ1-GCaMP3.0 cells, mean ± SEM)	saturating ligand concentration ([3]; stopped-flow, flpTM-DmOctβ1 cells loaded with Fluo-4) [µM]	EC50 ([3]; stopped-flow, flpTM-DmOctβ1 cells loaded with Fluo-4, mean ± SEM)
CCN(CC)c1ccc2c(COP3(=O)OC[C@H]4O[C@@H](n5cnc6c(N)ncnc65)[C@H](O)[C@@H]4O3)cc(=O)oc2c1 (stereo partly shown) [DEACM-cAMP]	approximately 60 ms	immediately after the light flash; also recorded: immediately after photolysis	approximately 2 µM	~6	–	–	–	–	–	–	–	–	–	–	–	–
C=C[C@@]1(C)CC(=O)[C@]2(O)[C@@]3(C)[C@@H](O)CCC(C)(C)[C@@H]3[C@H](OC(=O)CCN(C)C)[C@H](OC(C)=O)[C@@]2(C)O1.Cl [NKH477]	–	–	–	–	0.1	−6.91 ± 0.03	4.5	−5.34 ± 0.09	40	50	13 s and 12.70 ± 0.52 s	13.35 ± 0.82	13	2.1 µM and 2.12 µM	≥ 100	3.9 µM and 3.92 µM
